# Data: US20100298141A1, “SUBSTITUTED PYRIDINE N-OXIDE HERBICIDES” (E. I. DU PONT DE NEMOURS AND COMPANY, priority 2007, published 2010)
# Assays:
# corn = assay: Test C pre-/postemergence test; assay type: in vivo, Zea mays
# Summary of the method: (§1)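 Compounds in a non-phytotoxic solvent with surfactant applied preemergence to seeded pots and, at the same time, postemergence to plants 2–18 cm tall (1- to 4-leaf stage). Paddy tests: pots flooded to 3 cm, compound applied into the water, depth held throughout.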
# duck salad = assay: Test C flooded paddy test; assay type: in vivo, Heteranthera limosa; details: Flood
# Summary of the method: (§2)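 Test compounds are applied straight into paddy water held 3 cm above the soil surface, with that flood maintained for the whole test. After 13 to 15 days in the greenhouse, each species is scored visually relative to controls.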
# rice = assay: Test C flooded paddy test; assay type: in vivo, Oryza sativa; details: Flood
# Summary of the method: as §2
# woolly cupgrass = assay: Test C pre-/postemergence test; assay type: in vivo, Eriochloa villosa
# Summary of the method: as §1
# morningglory = assay: Test C pre-/postemergence test; assay type: in vivo, Ipomoea coccinea
# Summary of the method: as §1
# redroot pigweed = assay: Test A pre-/postemergence greenhouse test; assay type: in vivo, Amaranthus retroflexus; details: for Plant response rating, Pigweed: 0 to 100 scale where 0 is no effect and 100 is complete control; for Pigweed plant response rating: 0 to 100 scale
# Summary of the method: (§3)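 Test compounds in non-phytotoxic solvent with surfactant were applied as a preemergence soil spray to seeded loam/sand pots and, concurrently, postemergence to plants at 2–10 cm, one- to two-leaf stage. About ten days in greenhouse, then injury visually rated against untreated controls.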
# eastern black nightshade = assay: Test C pre-/postemergence test; assay type: in vivo, Solanum ptycanthum
# Summary of the method: as §1
# wheat [1] = assay: Test C pre-/postemergence test; assay type: in vivo, Triticum aestivum
# Summary of the method: as §1
# velvetleaf [2] = assay: Test C pre-/postemergence test; assay type: in vivo, Abutilon theophrasti
# Summary of the method: as §1
# johnsongrass = assay: Test C pre-/postemergence test; assay type: in vivo, Sorghum halepense
# Summary of the method: as §1
# wild oat = assay: Test C pre-/postemergence test; assay type: in vivo, Avena fatua
# Summary of the method: as §1
# catchweed bedstraw = assay: Test C pre-/postemergence test; assay type: in vivo, Galium aparine
# Summary of the method: as §1
# wheat [3] = assay: Test A pre-/postemergence greenhouse test; assay type: in vivo, Triticum aestivum; details: for Wheat plant response rating: 0 to 100 scale
# Summary of the method: as §3
# downy brome = assay: Test C pre-/postemergence test; assay type: in vivo, Bromus tectorum; details: preemergence, scale 0 (no effect) to 100 (complete control)
# Summary of the method: as §1
# yellow nutsedge = assay: Test C pre-/postemergence test; assay type: in vivo, Cyperus esculentus
# Summary of the method: as §1
# velvetleaf [4] = assay: Test A pre-/postemergence greenhouse test; assay type: in vivo, Abutilon theophrasti; details: for Velvetleaf plant response rating: 0 to 100 scale
# Summary of the method: as §3
# giant foxtail = assay: Test C pre-/postemergence test; assay type: in vivo, Setaria faberii
# Summary of the method: as §1
# [5] = 62 g ai/ha, Preemergence, scale 0 to 100
# [6] = 125 g ai/ha, preemergence, scale 0 (no effect) to 100 (complete control)
# [7] = Preemergence, 31 g ai/ha, scale 0 to 100 (0 no effect, 100 complete control)
# [8] = preemergence, 250 g ai/ha, scale 0 (no effect) to 100 (complete control)
# [9] = 31 g ai/ha, scale 0 to 100 (0 no effect, 100 complete control)
# [10] = 62 g ai/ha, scale 0 to 100 (0 no effect, 100 complete control)
# [11] = 125 g ai/ha, scale 0 to 100, 0 no effect, 100 complete control, 13 to 15 days
# [12] = 250 g ai/ha, scale 0 to 100, 0 no effect, 100 complete control, 13 to 15 days
# [13] = Postemergence, 500 g ai/ha, 0 is no effect, 100 is complete control
# [14] = Preemergence, 125 g ai/ha, 0 no effect, 100 complete control
# [15] = Postemergence, 125 g ai/ha, 0 to 100 scale where 0 is no effect and 100 is complete control
# [16] = Preemergence, 500 g ai/ha, 0 no effect, 100 complete control
structure (smiles),measurement,setting,value
Cn1nc(C(F)(F)F)c(C[S+]([O-])c2ccc(Cl)c[n+]2[O-])c1OCC(F)F (stereo not drawn) [Compound 85],Corn plant response rating,corn; [5],95
same,Corn plant response rating,corn; [6],98
same,"Plant response rating, Corn",corn; [7],95
same,Corn plant response rating,corn; [8],99
same,"Plant response rating, Ducksalad",duck salad; [9],35
same,"Plant response rating, Ducksalad",duck salad; [10],45
same,"Plant response rating, Ducksalad",duck salad; [11],75
same,"Plant response rating, Ducksalad",duck salad; [12],80
same,"Plant response rating, Rice",rice; [9],0
same,"Plant response rating, Rice",rice; [10],0
same,"Plant response rating, Rice",rice; [11],30
same,"Plant response rating, Rice",rice; [12],50
same,"Cupgrass, Woolly plant response rating",woolly cupgrass; [5],95
same,"Cupgrass, Woolly plant response rating",woolly cupgrass; [6],95
same,"Plant response rating, Cupgrass, Woolly",woolly cupgrass; [7],80
same,"Cupgrass, Woolly plant response rating",woolly cupgrass; [8],100
same,Morningglory plant response rating,morningglory; [5],90
same,Morningglory plant response rating,morningglory; [6],90
same,Morningglory plant response rating,morningglory; [8],100
same,"Plant response rating, Pigweed","redroot pigweed; Postemergence, 125 g ai/ha",60
same,Pigweed plant response rating,redroot pigweed; [13],90
same,Pigweed plant response rating,redroot pigweed; [14],70
same,"Plant response rating, Pigweed","redroot pigweed; Preemergence, 500 g ai/ha",90
same,Nightshade plant response rating,eastern black nightshade; [5],85
same,Nightshade plant response rating,eastern black nightshade; [6],100
same,Nightshade plant response rating,eastern black nightshade; [8],100
same,Wheat plant response rating,wheat [1]; [5],50
same,Wheat plant response rating,wheat [1]; [6],70
same,"Plant response rating, Wheat",wheat [1]; [7],50
same,Wheat plant response rating,wheat [1]; [8],100
same,Velvetleaf plant response rating,velvetleaf [2]; [5],70
same,Velvetleaf plant response rating,velvetleaf [2]; [6],95
same,"Plant response rating, Velvetleaf",velvetleaf [2]; [7],50
same,Velvetleaf plant response rating,velvetleaf [2]; [8],100
same,Johnsongrass plant response rating,johnsongrass; [5],85
same,Johnsongrass plant response rating,johnsongrass; [6],100
same,"Plant response rating, Johnsongrass",johnsongrass; [7],85
same,Johnsongrass plant response rating,johnsongrass; [8],100
same,"Oat, Wild plant response rating",wild oat; [5],80
same,"Oat, Wild plant response rating",wild oat; [6],85
same,"Plant response rating, Oat, Wild",wild oat; [7],80
same,"Oat, Wild plant response rating",wild oat; [8],100
same,Galium plant response rating,catchweed bedstraw; [5],100
same,Galium plant response rating,catchweed bedstraw; [6],100
same,"Plant response rating, Galium",catchweed bedstraw; [7],98
same,Galium plant response rating,catchweed bedstraw; [8],100
same,"Plant response rating, Wheat",wheat [3]; [15],60
same,Wheat plant response rating,wheat [3]; [13],70
same,Wheat plant response rating,wheat [3]; [14],70
same,Wheat plant response rating,wheat [3]; [16],90
same,"Bromegrass, Downy plant response rating",downy brome; 125 g ai/ha,70
same,"Bromegrass, Downy plant response rating",downy brome; 250 g ai/ha,100
same,"Nutsedge, Yellow plant response rating",yellow nutsedge; [5],40
same,"Nutsedge, Yellow plant response rating",yellow nutsedge; [6],40
same,"Plant response rating, Nutsedge, Yellow",yellow nutsedge; [7],40
same,"Nutsedge, Yellow plant response rating",yellow nutsedge; [8],95
same,"Plant response rating, Velvetleaf",velvetleaf [4]; [15],50
same,Velvetleaf plant response rating,velvetleaf [4]; [13],90
same,Velvetleaf plant response rating,velvetleaf [4]; [14],50
same,Velvetleaf plant response rating,velvetleaf [4]; [16],100
same,"Foxtail, Giant plant response rating",giant foxtail; [5],100
same,"Plant response rating, Foxtail, Giant",giant foxtail; [7],85
same,"Foxtail, Giant plant response rating",giant foxtail; [8],100
